Reference: patent publication US7897727B2, “Bioactive peptide for cell adhesion” (University of Delaware, priority 2000, dated 2011)
“Also recorded” adds a separate entry of the source. No end group written: not given here.

Key:
HES cells = assay: Cell adhesion assay on coated 96 well plates (MTS), HES cells; type: cell-based, human; settings: peptide conjugated to BSA coated on MAXISORP plates; 1 hr attachment at 37° C.; serum-free RPMI 1640
Experimental: (§1) Concentrated stocks of rat-tail type I collagen were diluted to designated concentrations in 0.02 N acetic acid and coated overnight on MAXISORP® 96 well plates at room temperature (RT). Poly-L-lysine (PLL), heat-denatured bovine serum albumin (BSA), the peptide of SEQ ID NO:1 conjugated to BSA (indicated in FIGS. 4-7 as “PLN4”) and a scrambled peptide from domain IV of perlecan having the amino acid sequence TGKSVGGSLIWPVRGQH (SEQ ID NO:4) conjugated to BSA (indicated in FIGS. 4-7 as “PLN4*”) were diluted in 1×phosphate buffered saline (PBS) and also coated overnight on MAXISORP® 96 well plates at RT. The following day, the plates were washed three times with 1×PBS to remove any residue and blocked with 1% heat-denatured BSA for 1 hr at 37° C. Following blocking, plates were washed once with 1×PBS. Cells from various cell lines were harvested with 0.5 mM EDTA and collected by centrifugation. Pelleted cells were resuspended in serum-free RPMI 1640 and plated at a concentration of 2.5×10^4 cells per 100 μl. Cells were allowed to attach to the wells for 1 hr at 37° C. Next, the wells were washed once with 1% heat-denatured BSA to remove any unattached cells. Cell adhesion was quantified as in Example 1, using the CELLTITER 96® AQueous Non-Radioactive Cell Proliferation Assay (MTS). […] Following incubation, an Elisa plate reader was used to measure optical density. […]

PC3 cells = assay: Cell adhesion assay on coated 96 well plates (MTS), PC3 cells; type: cell-based; settings: peptide conjugated to BSA coated on MAXISORP plates; 1 hr attachment at 37° C.; serum-free RPMI 1640
Experimental: as §1

[1] = tested on: marrow stromal cells HS27a; assay: Cell adhesion assay on coated 96 well plates (MTS), HS27a cells; type: cell-based; settings: peptide conjugated to BSA coated on MAXISORP plates; 1 hr attachment at 37° C.; serum-free RPMI 1640
Experimental: as §1

marrow stromal cells HS5 = assay: Cell adhesion assay on coated 96 well plates (MTS), HS5 cells; type: cell-based; settings: peptide conjugated to BSA coated on MAXISORP plates; 1 hr attachment at 37° C.; serum-free RPMI 1640
Experimental: as §1

[2] = tested on: multipotent mouse mesenchymal stem cells, 10T1/2; assay: Cell adhesion of 10T1/2 cells to coated plastic (CELLTITER 96 MTS assay); type: cell-based
Experimental: Adhesion is measured by the cell proliferation assay CELLTITER 96® AQueous Non-Radioactive Cell Proliferation Assay (MTS) sold by Promega, Inc. The CELLTITER 96® AQueous Non-Radioactive Cell Proliferation Assay is a calorimetric method for determining the number of viable cells in proliferation, cytotoxicity or chemosensitivity assays. The CELLTITER 96® AQueous Non-Radioactive Cell Proliferation Assay is composed of solutions of a tetrazolium compound (3-(4,5-dimethylthiazol-2-yl)-5-(3-carboxymethoxyphenyl)-2-(4-su-lfophenyl)-2H-tetrazolium, inner salt; MTS) and an electron coupling reagent (phenazine methosulfate) PMS. MTS is bioreduced by cells into a formazan that is soluble in tissue culture medium. The absorbance of the formazan at 490 nm can be measured directly from 96 well assay plates without additional processing. The conversion of MTS into the aqueous soluble formazan is accomplished by dehydrogenase enzymes found in metabolically active cells. The quantity of formazan product as measured by the amount of 490 nm absorbance is directly proportional to the number of living cells in culture.
No adhesion to uncoated plastic occurred during the 30 minute time period of this study. BSA (bovine serum albumin) and poly-L-lysine (PLL) were used as coating controls. Collagen I, a known adhesive protein substrate for these cells, served as positive control. […]

Sequence	cell adhesion / attachment and spreading, HES cells (HES cells)	cell adhesion / attachment and spreading, PC3 cells (PC3 cells)	cell adhesion / attachment and spreading, HS27a cells [1]	cell adhesion / attachment and spreading, HS5 cells (marrow stromal cells HS5)	adhesion of 10T1/2 cells ([2]; peptide conjugated to BSA, coated onto plastic, 30 minute time period, MTS absorbance 490 nm, listed as SEQ ID NO:1)	focal adhesion formation of 10T1/2 cells (photomicrographs) ([2]; plastic coated with BSA conjugated to the polypeptide)
TGKSVGGSLIWPVRGQH (also: conjugated to BSA) [PLN4*, scrambled peptide from domain IV of perlecan, conjugated to BSA, reference compound]	cell attachment and spreading did not occur	cell attachment and spreading did not occur	cell attachment and spreading did not occur	cell attachment and spreading did not occur		
TWSKVGGHLRPGIVQSG (also: conjugated to BSA; listed as Homo sapiens) [PLN4, adhesive polypeptide derived from domain IV of perlecan; tested conjugated to BSA]	best adhesion and rapid focal adhesion formation of these four cell types	best adhesion and rapid focal adhesion formation of these four cell types	did not bind to the peptide	did not bind to the peptide	consistently strong; also recorded: best adhesion of the cell types reported herein	adhesion is followed by focal adhesion formation
